Measured values reported in patent US20080004253A1, “Thiazolopyrimidine modulators of TRPV1” (priority 2006, published 2008).

Key:
human TRPV1 = target: T1, human TRPV1 (Homo sapiens, UniProt Q8NER1); assay: Functional assay: block of capsaicin-induced Ca2+ influx, human assay (hTRPV1/HEK293, FLIPR); type: cell-based; settings: hTRPV1/HEK293 cells, 150 nM capsaicin challenge, Fluo-3 fluorescence; mean; > value = solubility limit in assay medium
T1 construct: expressed in transfected cells; host or cells: HEK293 (hTRPV1/HEK293), zeocin selection
Procedure, shortened: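 HEK293 cells stably expressing human TRPV1, fluo3-loaded, preincubated 30 min with compound (serial 3-fold dilutions from 10 μM, duplicate) in 20 μM Ca2+ buffer. Capsaicin response taken as fluo3 fluorescence change before vs 100 s after agonist; IC50 by non-linear regression, mean values; free base or TFA salt.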

rat TRPV1 = target: T2, rat TRPV1 (Rattus norvegicus, UniProt O35433); assay: Functional assay: block of capsaicin-induced Ca2+ influx, rat assay (rTRPV1/HEK293, FLIPR); type: cell-based; settings: rTRPV1/HEK293 cells, capsaicin challenge, Fluo-3 fluorescence; mean; > value = solubility limit in assay medium
T2 construct: expressed in transfected cells; host or cells: HEK293 (rTRPV1/HEK293), geneticin selection
Procedure, shortened: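 Compounds, as free base or TFA salt, tested from 10 μM in three-fold steps on rTRPV1-transfected HEK293 cells, with 30 min preincubation in low-calcium (20 μM) buffer. Capsaicin-evoked Ca2+ influx measured by FLIPR fluo3 signal before and 100 s after addition. Averaged IC50 from non-linear fits.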

T2 sequence (O35433 whole entry): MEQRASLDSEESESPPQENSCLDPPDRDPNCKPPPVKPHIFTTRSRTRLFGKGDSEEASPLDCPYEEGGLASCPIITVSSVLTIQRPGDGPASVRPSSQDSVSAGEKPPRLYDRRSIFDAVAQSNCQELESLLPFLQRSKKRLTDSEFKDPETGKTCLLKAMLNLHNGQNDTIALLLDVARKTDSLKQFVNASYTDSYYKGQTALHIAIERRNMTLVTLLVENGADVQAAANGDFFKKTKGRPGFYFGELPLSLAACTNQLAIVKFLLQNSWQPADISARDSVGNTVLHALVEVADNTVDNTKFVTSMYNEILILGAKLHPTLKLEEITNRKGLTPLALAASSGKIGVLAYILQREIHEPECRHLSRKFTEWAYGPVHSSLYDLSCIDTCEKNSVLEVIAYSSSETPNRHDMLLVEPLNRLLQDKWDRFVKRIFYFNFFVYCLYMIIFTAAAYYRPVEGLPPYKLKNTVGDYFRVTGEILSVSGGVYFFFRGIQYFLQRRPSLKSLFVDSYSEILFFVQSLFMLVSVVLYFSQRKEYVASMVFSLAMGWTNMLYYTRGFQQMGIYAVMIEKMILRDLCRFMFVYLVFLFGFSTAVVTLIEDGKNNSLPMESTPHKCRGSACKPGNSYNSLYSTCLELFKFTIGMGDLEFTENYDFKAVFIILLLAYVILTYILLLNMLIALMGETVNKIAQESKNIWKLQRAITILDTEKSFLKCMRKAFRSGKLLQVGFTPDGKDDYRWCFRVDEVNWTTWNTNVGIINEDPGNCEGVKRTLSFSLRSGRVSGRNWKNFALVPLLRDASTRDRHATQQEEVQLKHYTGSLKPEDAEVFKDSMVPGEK
T1 sequence (Q8NER1 whole entry): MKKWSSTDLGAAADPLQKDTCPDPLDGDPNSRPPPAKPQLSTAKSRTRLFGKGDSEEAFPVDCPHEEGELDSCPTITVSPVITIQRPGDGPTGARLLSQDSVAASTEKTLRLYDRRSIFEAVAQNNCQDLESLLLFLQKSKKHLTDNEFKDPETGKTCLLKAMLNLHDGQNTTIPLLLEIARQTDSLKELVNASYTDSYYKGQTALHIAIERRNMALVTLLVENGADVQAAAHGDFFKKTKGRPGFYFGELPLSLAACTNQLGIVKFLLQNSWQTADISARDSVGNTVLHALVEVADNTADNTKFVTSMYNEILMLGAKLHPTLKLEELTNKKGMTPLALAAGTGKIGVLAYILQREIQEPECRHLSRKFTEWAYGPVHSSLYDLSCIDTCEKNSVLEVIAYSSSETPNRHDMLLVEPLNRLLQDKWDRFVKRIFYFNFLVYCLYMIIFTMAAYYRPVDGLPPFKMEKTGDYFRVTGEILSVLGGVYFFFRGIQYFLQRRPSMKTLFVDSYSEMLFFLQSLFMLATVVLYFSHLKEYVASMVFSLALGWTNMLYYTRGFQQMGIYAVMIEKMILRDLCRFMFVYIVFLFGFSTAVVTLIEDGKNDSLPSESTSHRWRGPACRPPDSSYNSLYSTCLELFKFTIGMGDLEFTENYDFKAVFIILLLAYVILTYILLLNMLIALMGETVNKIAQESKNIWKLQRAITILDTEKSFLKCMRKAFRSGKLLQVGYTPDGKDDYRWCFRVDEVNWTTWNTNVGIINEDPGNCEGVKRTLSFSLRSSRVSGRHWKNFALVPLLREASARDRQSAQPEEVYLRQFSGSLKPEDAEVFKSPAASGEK

Cc1cccc(C)c1Nc1nc2c(NC3CCC(C(C)(C)C)CC3)ncnc2s1 (single isomer, unassigned) [Example 248, N^7-(4-tert-Butyl-cyclohexyl)-N^2-(2,6-dimethyl-phenyl)-thiazolo[5,4-d]pyrimidine-2,7-diamine]
IC50 (human TRPV1): 1100 nM | IC50 (rat TRPV1): 240 nM

Cc1cccc(C)c1Nc1nc2c(Nc3ccc(S(=O)(=O)N4CCCC4)cc3)ncnc2s1 [Example 104, N^2-(2,6-Dimethyl-phenyl)-N^7-[4-(pyrrolidine-1-sulfonyl)-phenyl]-thiazolo[5,4-d]pyrimidine-2,7-diamine]
IC50 (human TRPV1): 22 nM | IC50 (rat TRPV1): 7 nM

CSc1ccc(Nc2nc(C)nc3sc(Nc4c(Cl)cccc4Cl)nc23)cc1 [Example 94, N^2-(2,6-Dichloro-phenyl)-5-methyl-N^7-(4-methylsulfanyl-phenyl)-thiazolo[5,4-d]pyrimidine-2,7-diamine]
IC50 (human TRPV1): 8 nM | IC50 (rat TRPV1): 3 nM

FC(F)(F)c1ccc(Nc2ncnc3sc(Nc4ccccc4Cl)nc23)cc1 [Example 16, N^2-(2-Chloro-phenyl)-N^7-(4-trifluoromethyl-phenyl)-thiazolo[5,4-d]pyrimidine-2,7-diamine]
IC50 (human TRPV1): 92 nM | IC50 (rat TRPV1): 39 nM

CS(=O)(=O)c1ccc(Nc2nc(N3CCOCC3)nc3sc(Nc4c(Cl)cccc4Cl)nc23)cc1 [Example 178, N^2-(2,6-Dichloro-phenyl)-N^7-(4-methanesulfonyl-phenyl)-5-morpholin-4-yl-thiazolo[5,4-d]pyrimidine-2,7-diamine]
IC50 (human TRPV1): 287 nM | IC50 (rat TRPV1): 60 nM

Cc1cccc(C)c1Nc1nc2c(Nc3ccc(OC4CCOC4)cc3)ncnc2s1 (racemic) [Example 154, (racemic)-N^2-(2,6-Dimethyl-phenyl)-N^7-[4-(tetrahydro-furan-3-yloxy)-phenyl]-thiazolo[5,4-d]pyrimidine-2,7-diamine]
IC50 (human TRPV1): 1520 nM | IC50 (rat TRPV1): 1860 nM

Cc1nc(Nc2ccc(C(F)(F)F)cc2)c2nc(Nc3ccccc3S(C)(=O)=O)sc2n1 [Example 197, N^2-(2-Methanesulfonyl-phenyl)-5-methyl-N^7-(4-trifluoromethylphenyl)-thiazolo[5,4-d]pyrimidine-2,7-diamine]
IC50 (human TRPV1): 312 nM | IC50 (rat TRPV1): 287 nM

Cc1nc(Nc2ccc([S+](C)[O-])cc2)c2nc(Nc3c(C)cccc3C)sc2n1 (racemic) [Example 143, (racemic)-N^2-(2,6-Dimethyl-phenyl)-N^7-(4-methanesulfinyl-phenyl)-5-methyl-thiazolo[5,4-d]pyrimidine-2,7-diamine]
IC50 (human TRPV1): 423 nM | IC50 (rat TRPV1): 279 nM

Cc1cccc(C)c1Nc1nc2c(Nc3ccc(C#N)c(Cl)c3)ncnc2s1 [Example 142, 2-Chloro-4-[2-(2,6-dimethyl-phenylamino)-thiazolo[5,4-d]pyrimidin-7-ylamino]-benzonitrile]
IC50 (human TRPV1): 394 nM | IC50 (rat TRPV1): 231 nM

Cc1cccc(C)c1Nc1nc2c(Nc3ccc(S(C)(=O)=O)c(F)c3)ncnc2s1 [Example 97, N^2-(2,6-Dimethyl-phenyl)-N^7-(3-fluoro-4-methanesulfonyl-phenyl)-thiazolo[5,4-d]pyrimidine-2,7-diamine]
IC50 (human TRPV1): 12 nM | IC50 (rat TRPV1): 32 nM

CSc1ccc(Nc2ncnc3sc(Nc4c(Cl)cccc4Cl)nc23)cc1Cl [Example 124, N^7-(3-Chloro-4-methylsulfanyl-phenyl)-N^2-(2,6-dichloro-phenyl)-thiazolo[5,4-d]pyrimidine-2,7-diamine]
IC50 (human TRPV1): 98 nM | IC50 (rat TRPV1): 40 nM

Cc1cccc(C)c1Nc1nc2c(Nc3ccc(I)cc3)ncnc2s1 [Example 137, N^2-(2,6-Dimethyl-phenyl)-N^7-(4-iodo-phenyl)-thiazolo[5,4-d]pyrimidine-2,7-diamine]
IC50 (human TRPV1): 225 nM | IC50 (rat TRPV1): 48 nM

Cc1cccc(C)c1Nc1nc2c(Nc3ccc(S(=O)(=O)N4CCNCC4)cc3)ncnc2s1 [Example 151, N^2-(2,6-Dimethyl-phenyl)-N^7-[4-(Piperazine-1-sulfonyl)-phenyl]-thiazolo[5,4-d]pyrimidine-2,7-diamine]
IC50 (human TRPV1): 1220 nM | IC50 (rat TRPV1): 349 nM

CC(=O)c1ccc(Nc2nc(C)nc3sc(Nc4c(Cl)cccc4Cl)nc23)cc1 [Example 86, 1-{4-[2-(2,6-Dichloro-phenylamino)-5-methyl-thiazolo[5,4-d]pyrimidin-7-ylamino]-phenyl}-ethanone]
IC50 (human TRPV1): 5 nM | IC50 (rat TRPV1): 3 nM

O=S(=O)(c1ccc(Nc2ncnc3sc(Nc4c(Cl)cccc4Cl)nc23)cc1)N1CCOCC1 [Example 80, N^2-(2,6-Dichloro-phenyl)-N^7-[4-(morpholine-4-sulfonyl)-phenyl]-thiazolo[5,4-d]pyrimidine-2,7-diamine]
IC50 (human TRPV1): 2 nM | IC50 (rat TRPV1): 1 nM

Cc1ccc(Nc2nc(C)nc3sc(Nc4c(C)cccc4C)nc23)cc1 [Example 138, N^2-(2,6-Dimethyl-phenyl)-5-methyl-N^7-p-tolyl-thiazolo[5,4-d]pyrimidine-2,7-diamine]
IC50 (human TRPV1): 271 nM | IC50 (rat TRPV1): 128 nM

FC(F)(F)c1ccc(Nc2ncnc3sc(Nc4c(Cl)cccc4C(F)(F)F)nc23)cn1 [Example 19, N^2-(2-Chloro-6-trifluoromethyl-phenyl)-N^7-(6-trifluoromethyl-pyridin-3-yl)-thiazolo[5,4-d]pyrimidine-2,7-diamine]
IC50 (human TRPV1): 74 nM | IC50 (rat TRPV1): 31 nM

FC(F)(F)c1ccc(Nc2ncnc3sc(Nc4ccccc4)nc23)cc1 [Example 20, N^2-Phenyl-N^7-(4-trifluoromethyl-phenyl)-thiazolo[5,4-d]pyrimidine-2,7-diamine]
IC50 (human TRPV1): > 6670 nM | IC50 (rat TRPV1): 2680 nM

FC(F)(F)c1ccc(Nc2ncnc3sc(Nc4c(Cl)cccc4Cl)nc23)cc1 [Example 1, N^2-(2,6-Dichloro-phenyl)-N^7-(4-trifluoromethyl-phenyl)-thiazolo[5,4-d]pyrimidine-2,7-diamine]
IC50 (human TRPV1): 12 nM | IC50 (rat TRPV1): 3 nM

CS(=O)(=O)c1nc(Nc2ccc(C(F)(F)F)cc2)c2nc(Nc3c(Cl)cccc3Cl)sc2n1 [Example 53, N^2-(2,6-Dichloro-phenyl)-5-methanesulfonyl-N^7-(4-trifluoromethyl-phenyl)-thiazolo[5,4-d]pyrimidine-2,7-diamine]
IC50 (human TRPV1): 196 nM | IC50 (rat TRPV1): 93 nM

Cc1cccc(C)c1Nc1nc2c(Nc3ccc(C(F)(F)F)c(Cl)c3)ncnc2s1 [Example 13, N^7-(3-Chloro-4-trifluoromethyl-phenyl)-N^2-(2,6-dimethyl-phenyl)-thiazolo[5,4-d]pyrimidine-2,7-diamine]
IC50 (human TRPV1): 113 nM | IC50 (rat TRPV1): 34 nM

Cc1ccccc1Nc1nc2c(Nc3ccc(C(F)(F)F)nc3)ncnc2s1 [Example 218, N^2-(2-Methylphenyl)-N^7-[6-(trifluoromethyl)pyridin-3-yl][1,3]thiazolo[5,4-d]pyrimidine-2,7-diamine]
IC50 (human TRPV1): 55 nM | IC50 (rat TRPV1): 24 nM

O=S(=O)(c1ccc(Nc2ncnc3sc(Nc4c(Cl)cncc4Cl)nc23)cc1)N1CCCC1 [Example 214, N^2-(3,5-Dichloro-pyridin-4-yl)-N^7-[4-(pyrrolidine-1-sulfonyl)-phenyl]thiazolo[5,4-d]pyrimidine-2,7-diamine]
IC50 (human TRPV1): 907 nM | IC50 (rat TRPV1): 240 nM

CS(=O)(=O)c1ccccc1Nc1nc2c(Nc3ccc(S(=O)(=O)C(F)(F)F)cc3)ncnc2s1 [Example 200, N^2-(2-Methanesulfonyl-phenyl)-N^7-(4-trifluoromethanesulfonyl-phenyl)-thiazolo[5,4-d]pyrimidine-2,7-diamine]
IC50 (human TRPV1): 386 nM | IC50 (rat TRPV1): 874 nM
